The nature of series [1]: pH value of pemafibrate itself dissolved or dispersed in purified water. The format is physicochemical. As to conditions: pemafibrate 5 μg/mL as free form in purified water. The procedure: Herein, the “a pH value of a solution produced by dissolving or dispersing a pharmaceutical composition in water” means a value obtained by measuring at 25° C. a pH of a solution produced by dissolving or dispersing a pharmaceutical composition containing pemafibrate, a salt thereof or a solvate thereof in water so that the concentration of pemafibrate in terms of a free form is 5 μg/mL. Incidentally, purified water is used as water. First a measurement of a pH value of pemafibrate itself was performed. To be more specific, pemafibrate was dissolved or dispersed in purified water so that the concentration of pemafibrate as the free form was 5 μg/mL. Then, a pH value of the obtained solution at 25° C. was measured.

A short description of series [2]: Stability of pemafibrate under different pH environments (buffer solutions, 80° C., 96 hours, HPLC). The format is physicochemical. To be noted: 5 μg/mL, 96 hours later. The procedure:
In Test Examples below, measurement was performed through HPLC using an ODS column as a column and an ultraviolet spectrophotometer as a detector. Additionally, the following studies were conducted in order to evaluate the stability of pemafibrate under different pH environments. Namely, buffer solutions were prepared in accordance with the descriptions about buffer solutions of U.S.Pharmacopeia (2013 Edition) and Japanese Pharmacopeia (17th Edition), so as to have the following pH values at 25° C.: pH 2.0 (hydrochloric acid buffer solution including potassium chloride); pH 3.0 and 4.0 (Acid phthalate buffer solution including potassium biphthalate); pH 6.0 and 7.0 (phosphate buffer solution); pH 8.0, 9.0 and 10.0 (Alkaline borate buffer solution including boric acid, potassium chloride and sodium hydroxide); pH 11.0 (Ammonium buffer solution including ammonia and ammonium chloride); and pH 12.0 (phosphate buffer solution). In each of the buffer solutions, pemafibrate was dissolved or dispersed so that its amount as the free form was 5 μg/mL, thereby producing liquid samples having different pH conditions. The liquid samples were stored at 80° C. for 96 hours. The amounts of pemafibrate-derived decomposition products (related substances) in the liquid samples after storage for 96 hours were evaluated through the following method. Specifically, acetonitrile was added to each of the liquid samples, and then they were measured by using HPLC. The sum of peak areas derived from related substances on the chromatogram was calculated in terms of the ratio (%) to the sum of peak areas derived from pemafibrate and related substances, and the ratio was defined as the “Total amount (%) of related substances”.

From patent US20200222370A1, “PHARMACEUTICAL COMPOSITION” (KOWA COMPANY, LTD., priority 2017, published 2020) come the findings set out here.

For `CC[C@@H](Oc1cccc(CN(CCCOc2ccc(OC)cc2)c2nc3ccccc3o2)c1)C(=O)O` [pemafibrate, (2R)-2-[3-([1,3-Benzoxazol-2-yl[3-(4-methoxyphenoxy)propyl]amino]methyl)phenoxy]butanoic acid], in series [1], the “pH value (25° C.)” value is around 5.9. The “Total amount (%) of related substances” value in series [2] (pH 2.0 buffer) turned out to be 27.1%; in series [2] (pH 3.0 buffer) it was 4.1%; in series [2] (pH 4.0 buffer) it was 1.1%; in series [2] (pH 6.0 buffer), 1.3%; in series [2] (pH 7.0 buffer), 0.9%; in series [2] (pH 8.0 buffer) it was 0.4%. Further, the “Total amount (%) of related substances” value in series [2] (pH 9.0 buffer) was below 0.1%; in series [2] (pH 10.0 buffer) it was 0.1%; in series [2] (pH 11.0 buffer), 0.1%; in series [2] (pH 12.0 buffer), below 0.1%.
